One data set addresses P-gp (Homo sapiens, UniProt P08183). As to conditions: 15 min, 10 μM.
For data set [1] the following is noted: cited from earlier work.

Where a name gives a salt, the structure may show the parent alone.

Chain of P-gp (P08183 whole entry): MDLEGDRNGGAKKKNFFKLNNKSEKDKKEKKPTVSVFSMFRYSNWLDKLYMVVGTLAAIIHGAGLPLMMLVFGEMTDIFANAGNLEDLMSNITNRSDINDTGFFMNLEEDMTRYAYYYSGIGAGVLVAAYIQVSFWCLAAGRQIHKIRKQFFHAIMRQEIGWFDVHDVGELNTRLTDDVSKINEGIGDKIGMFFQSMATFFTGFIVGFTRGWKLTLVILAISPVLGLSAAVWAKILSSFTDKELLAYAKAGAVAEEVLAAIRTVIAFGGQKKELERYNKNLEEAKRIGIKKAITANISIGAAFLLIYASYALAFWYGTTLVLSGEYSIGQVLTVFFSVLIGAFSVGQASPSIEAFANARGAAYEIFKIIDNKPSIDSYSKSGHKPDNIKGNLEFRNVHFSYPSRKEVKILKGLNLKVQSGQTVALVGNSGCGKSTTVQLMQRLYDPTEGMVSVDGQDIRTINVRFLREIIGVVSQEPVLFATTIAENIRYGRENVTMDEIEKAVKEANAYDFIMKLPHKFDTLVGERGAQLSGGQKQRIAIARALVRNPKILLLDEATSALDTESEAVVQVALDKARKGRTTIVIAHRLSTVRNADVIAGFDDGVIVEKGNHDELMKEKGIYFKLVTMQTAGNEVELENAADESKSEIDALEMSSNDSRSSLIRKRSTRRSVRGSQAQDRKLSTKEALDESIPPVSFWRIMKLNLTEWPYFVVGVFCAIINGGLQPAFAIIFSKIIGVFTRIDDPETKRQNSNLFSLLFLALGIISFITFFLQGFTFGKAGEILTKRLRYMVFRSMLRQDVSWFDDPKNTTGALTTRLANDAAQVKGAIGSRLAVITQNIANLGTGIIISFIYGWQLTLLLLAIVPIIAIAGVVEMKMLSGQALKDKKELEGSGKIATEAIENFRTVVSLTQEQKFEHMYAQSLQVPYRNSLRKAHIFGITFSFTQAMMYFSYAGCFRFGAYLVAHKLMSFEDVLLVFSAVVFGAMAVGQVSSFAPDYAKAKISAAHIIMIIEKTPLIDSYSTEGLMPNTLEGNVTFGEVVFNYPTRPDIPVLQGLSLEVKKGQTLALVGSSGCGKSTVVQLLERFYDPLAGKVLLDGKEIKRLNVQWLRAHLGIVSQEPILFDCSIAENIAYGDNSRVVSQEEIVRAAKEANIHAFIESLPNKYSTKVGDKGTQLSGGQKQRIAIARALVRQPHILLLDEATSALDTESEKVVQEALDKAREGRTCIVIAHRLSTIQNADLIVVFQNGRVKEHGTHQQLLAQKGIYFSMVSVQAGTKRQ
Method for P-gp: The P-gp inhibition effect of anthraquinones from R. acetosa was evaluated via MDR assay kit using Caco-2 cells. […] The MDR dye-loading solution was added at a volume of 100 μL and incubated. Fluorescence intensity was detected with a microplate reader Synerge H1 (Biotek, Winooski, VT, USA) at a wavelength of 490 nm for the excitation and 525 nm for the emission.

Take `Cc1cc(O)c2c(c1)C(=O)c1cc(O)cc(O)c1C2=O` [emodin]: the “Fluorescence intensity as percentage of control group (P-gp inhibition)” value on P-gp is on record as 147.2% ± 12.4.

For `CC(C)(C(=O)O)c1ccc(C(O)CCCN2CCC(C(O)(c3ccccc3)c3ccccc3)CC2)cc1` (stereo not drawn) [fexofenadine, Fexofenadine hydrochloride], in data set [1], the “Fraction of dose excreted into feces as the unchanged form” value is reported as 80% and the “Fraction of dose excreted into urine as the unchanged form” value is reported as 11%.
